According to US12226410B2, “Methods for enhancing cellular clearance of pathological molecules via activation of the cellular protein ykt6” (NORTHWESTERN UNIVERSITY, priority 2019, dated 2025):
“Also recorded” adds a separate entry of the source.

What was measured:
[1] = test system: ykt6; assay: Ykt6 membrane shift analysis under lysosomal stress; type: cell-based, human
Protocol: (§1) FIGS. 3A, 3B, 3C, 3D, 3E, 3F, 3G, 3H, 3I, 3J, and 3K. Ykt6 is activated in response to lysosomal stress. 3A) Ykt6 membrane shift analysis in bafA1 (200 nM, 2 hrs) or NH4Cl (1M, 12 hrs) treated iPSn (d60). CBB, coomassie brilliant blue, (BafA1 and NH4Cl are indicated, n=7-10). 3B) Co-IP of GFP-ykt6 and bet1 in control iPSn (d60) treated with bafA1 (n=3). 3C) Ykt6 and GM130 immunofluorescence analysis of bafA1-treated H4 cells (n=9). Scale bars=10 um. 3D) Ykt6 membrane shift analysis in CBE-treated SH-SY5Y cells (50 μM, 2d, n=3). 3E) Co-IP of GFP-ykt6, bet1 and STX5 in CBE-treated SHSY5Y cells (n=5). 3F) Ykt6 membrane shift analysis in control or Gaucher disease (GD) iPSn (d100). a-Syn was knocked-out (SNCA KO) in GD lines by CRISPR/Cas9. Two exposures are included to better visualize cyt and mem ykt6 (n=4). 3G) Ykt6 membrane shift analysis in lenti-infected SH-SY5Y cells (moi3, dpi 10) (n=3). C, cytosolic; N, nuclear. 3H) GCase maturation was assessed by endo H digest in lenti-infected SH-SY5Y cells. Empty vector (vect), scrambled (scrb). 3I) Control iPSn were infected as in 3H and analyzed for GCase maturation (n=3). 3J) Live cell GCase activity in lenti-infected iPSn (n=4). 3K) Lysosomal mass measurement in control iPSn (n=4). Values are the mean+/−SEM, *p<0.05.
FIGS. 12A, 12B, 12C, 12D, 12E, and 12F. The effects of ykt6 knock-down on the lysosomal system and characterization of GD-SNCA KO iPSCs. […] 12B) Protein secretion was measured by radioactive pulse-chase from the same culture wells that correspond to proteolysis data of FIG. 2H. 12C) Control iPSn were treated with 50 mM sucrose for 7 days followed by membrane shift analysis of ykt6. 12D) Control iPSn were infected with scrambled (S) or ykt6 shRNA (KD) and treated with or without sucrose as done in panel B. LAMP1 levels were analyzed by western blot. GAPDH is a loading control (n=4). 12E) Cultures were treated as described in panel C, and analyzed for GCase maturation by western blot analysis (n=4). For all quantifications, values are the mean+/−SEM, *p<0.05. 12F) Analysis of off-target edits by CRISPR/Cas9 in SNCA knock out (KO) Gaucher disease iPSCs. The targeting strategy has been previously published (Zunke et al., 2018). Genomic sequences showing the closest homology to SNCA were analyzed for mis-matched mutations by T7 digestion, and compared to the parental GD line. PCR amplicons were analyzed by agarose gel electrophoresis stained with ethidium bromide. For all quantifications, values are the mean+/−SEM, *p<0.05. Student's T-test was used in panel 12A, while ANOVA with Tukey's post-hoc test was used in panels 12D and 12E.
Separation of lysates into cytosol and membrane fractions. […]

[2] = test system: ykt6 SNARE complexes; assay: Co-IP of GFP-ykt6 SNARE complexes under lysosomal stress; type: cell-based, human
Protocol: as §1, with “Empty vector (vect), scrambled (scrb).” left out, “3J) Live cell GCase activity in lenti-infected iPSn (n=4). 3K) Lysosomal mass measurement in control iPSn (n=4). Values are the mean+/−SEM, *p<0.05.” left out
To co-IP ykt6 SNARE assemblies, approximately 106-107 cells expressing GFP-tagged YKT6, were harvested in 1 ml of PBS, scraped off the plate and transferred to centrifuge tubes. […] Eluates were analyzed by western blot as described below. The samples were not analyzed in a blinded manner.

[3] = biological target: T1, ykt6 (Homo sapiens, UniProt O15498); assay: GFP-ykt6 / GM130 colocalization in Hela cells; type: cell-based; conditions: Hela cells stably expressing GFP-ykt6; 2 days, various concentrations
T1 construct: expressed in transfected cells
T1 sequence (O15498 1-198): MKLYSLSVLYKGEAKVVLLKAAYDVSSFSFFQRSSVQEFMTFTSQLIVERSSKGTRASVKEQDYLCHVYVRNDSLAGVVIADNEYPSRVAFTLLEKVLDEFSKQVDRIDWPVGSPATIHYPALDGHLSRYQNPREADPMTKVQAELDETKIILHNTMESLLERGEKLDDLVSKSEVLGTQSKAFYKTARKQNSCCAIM
Protocol: FIG. 19. […] A) Hela cells stably expressing GFP-ykt6 (green) were treated with #20 for 2 days at various concentrations, fixed, stained with Golgi marker GM130 (red), and colocalization was quantified by Pearson's correlation. Each plot represents an individual cell, from 3 culture wells. LNK-754 was used at 10 nM. B) Stable transfected Hela cells were incubated as in A followed by biochemical fractionation/western blot to detect cytosolic (cyt) or membrane (mem) ykt6. The assay was repeated 3 times, representative blot shown.
We tested the activity of Compound #20 ((3R)-1-[(1-{[1-(4,5-dimethylthiophene-2-carbonyl)piperidin-4-yl]methyl}-1H-1,2,3-triazol-4-yl)methyl]pyrrolidin-3-amine) regarding activation of ykt6 in Hela cells. (See FIG. 19). Hela cells stably expressing GFP-ykt6 were treated with Compound #20 for 2 days at various concentrations, fixed, stained with Golgi marker GM130, and colocalization was quantified by Pearson's correlation.

[4] = biological target: T2, ykt6 SNARE binding (STX5) (Homo sapiens, UniProt O15498); assay: Co-IP of GFP-ykt6 and STX5 in Hela cells; type: cell-based; conditions: Hela cells stably expressing GFP-ykt6; 2 days
T2 construct: expressed in transfected cells
T2 sequence (O15498 1-195 limits assumed): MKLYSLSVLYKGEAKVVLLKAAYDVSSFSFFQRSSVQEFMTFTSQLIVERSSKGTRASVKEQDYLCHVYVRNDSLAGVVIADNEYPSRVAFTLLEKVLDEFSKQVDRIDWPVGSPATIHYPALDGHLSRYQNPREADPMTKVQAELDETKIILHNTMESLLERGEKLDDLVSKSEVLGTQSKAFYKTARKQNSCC

For `Cl.N` [NH4Cl], which ykt6 cytosol/membrane distribution ([1]; healthy control iPSn (d60), 1M, 12 hrs) is on record?
Its ykt6 cytosol/membrane distribution is “caused a shift of ykt6 from the cytosol into membrane fractions”.

How did the ykt6 cytosol/membrane distribution ([1]; control iPSn, 50 mM, 7 days) turn out when `OC[C@H]1O[C@@](CO)(O[C@H]2O[C@H](CO)[C@@H](O)[C@H](O)[C@H]2O)[C@@H](O)[C@@H]1O` [sucrose] was run?
Its ykt6 cytosol/membrane distribution is “caused ykt6 to shift into membranes”.

Which ykt6 cytosol/membrane distribution ([1]; SH-SY5Y cells, 50 μM, 2d) does the source give for `O[C@H]1[C@H](O)[C@@H](O)[C@@H]2O[C@@H]2[C@@H]1O` [CBE] here?
Its ykt6 cytosol/membrane distribution is “caused ykt6 to shift into membranes”.

What about the “ykt6 SNARE complexes (co-IP GFP-ykt6, bet1 and STX5)” value ([2]; SHSY5Y cells) of the same compound?
Its value is “increased ykt6 SNARE complexes”.

`Cc1cc(C(=O)N2CCC(Cn3cc(CN4CC[C@@H](N)C4)nn3)CC2)sc1C` [Compound #20, (3R)-1-[(1-{[1-(4,5-dimethylthiophene-2-carbonyl)piperidin-4-yl]methyl}-1H-1,2,3-triazol-4-yl)methyl]pyrrolidin-3-amine] was tested. Which “ykt6 activity (GFP-ykt6 colocalization with GM130, Pearson's correlation)” value [3] did it give?
Its value is “can activate ykt6; also recorded: increases ykt6 activity”.

What about the “SNARE binding (STX5 co-IP)” value [4] of the same compound?
Its value is “increases SNARE binding”.

What does the source list for `CO/C1=C\C(C)=C\[C@@H](C)[C@@H](O)[C@@H](C)C/C(C)=C/C=C/[C@H](OC)[C@@H]([C@@H](C)[C@@H](O)[C@H](C)[C@@]2(O)C[C@@H](O)[C@H](C)[C@@H](C(C)C)O2)OC1=O` [bafilomycin A1]?
ykt6 cytosol/membrane distribution ([1]; healthy control iPSn (d60), 200 nM, 2 hrs): caused a shift of ykt6 from the cytosol into membrane fractions; assembly of ykt6 ER-Golgi SNARE complexes (co-IP GFP-ykt6 and bet1) ([2]; control iPSn (d60)): promoted the assembly of ykt6 ER-Golgi SNARE complexes
